Experimental data published in patent publication US20150313217A1, “CONTROL AGENT FOR PLANT PEST AND/OR PLANT DISEASE” (RIKEN, priority 2012, published 2015).

Assay: Aggregation and precipitation of polyglycerin fatty acid ester on storage with oxoacid or organic solvent (Example 17)
Format: physicochemical
Design: key: 1: equivalent aggregation and precipitation to those of the reference were observed; 2: the aggregation and precipitation were approximately ¾ of those of the reference; 3: the aggregation and precipitation were approximately ½ of those of the reference; 4: the aggregation and precipitation were approximately ¼ of those of the reference; 5: no aggregate and precipitate were observed
Conditions: cool dark place, two months, visual
Description: A polyglycerin fatty acid ester and phosphoric acid were weighed using an electronic balance and put into a cylindrical plastic container (diameter of […]×height of 77 mm, volume 25 ml) in such a manner that the mixing ratio was 90:10 (mass ratio) (10 mass % of phosphoric acid (approximately 11.1 parts by mass of phosphoric acid per 100 parts by mass of the polyglycerin fatty acid) was added) or 99.9:0.1 (mass ratio) (0.1 mass % of phosphoric acid (approximately 0.1 parts by mass of phosphoric acid per 100 parts by mass of the polyglycerin fatty acid) was added). The total amount was adjusted to 20 ml. Then, the preparation was made uniform by sufficient stirring and mixing. The resultant was left standing in a cool dark place. Two months later, the degree of aggregation and precipitation of the polyglycerin fatty acid ester was visually determined based on the following determination criteria. […] Further, as a reference, a test was conducted by the same method as above using only a polyglycerin fatty acid ester to which no oxoacid or organic solvent was added. Index 1: equivalent aggregation and precipitation to those of the reference were observed. Index 2: the aggregation and precipitation were approximately ¾ of those of the reference.

[1] = adding ratio 0.1 % to polyglycerin fatty acid ester
[2] = adding ratio 10.0 % to polyglycerin fatty acid ester

| Result (index): degree of aggregation and precipitation of the polyglycerin fatty acid ester [1] | Result (index): degree of aggregation and precipitation of the polyglycerin fatty acid ester [2] | Structure (SMILES) |
| --- | --- | --- |
| 4 | 5 | CC(=O)O [acetic acid] |
| 4 | 4 | CCO [ethyl alcohol] |
| 4 | 5 | CC(O)C(=O)O (stereo not shown) [lactic acid] |
| 4 | 5 | O=P(O)(O)O [phosphoric acid] |

| Structure (SMILES) | Result (index): degree of aggregation and precipitation of the polyglycerin fatty acid ester [1] | Result (index): degree of aggregation and precipitation of the polyglycerin fatty acid ester [2] |
| --- | --- | --- |
| CCCCCC [normal hexane] | 3 | 4 |
